The target in the experiment is T1, Beta-glucuronidase (Homo sapiens, UniProt P08236).
T1 sequence (P08236 whole entry): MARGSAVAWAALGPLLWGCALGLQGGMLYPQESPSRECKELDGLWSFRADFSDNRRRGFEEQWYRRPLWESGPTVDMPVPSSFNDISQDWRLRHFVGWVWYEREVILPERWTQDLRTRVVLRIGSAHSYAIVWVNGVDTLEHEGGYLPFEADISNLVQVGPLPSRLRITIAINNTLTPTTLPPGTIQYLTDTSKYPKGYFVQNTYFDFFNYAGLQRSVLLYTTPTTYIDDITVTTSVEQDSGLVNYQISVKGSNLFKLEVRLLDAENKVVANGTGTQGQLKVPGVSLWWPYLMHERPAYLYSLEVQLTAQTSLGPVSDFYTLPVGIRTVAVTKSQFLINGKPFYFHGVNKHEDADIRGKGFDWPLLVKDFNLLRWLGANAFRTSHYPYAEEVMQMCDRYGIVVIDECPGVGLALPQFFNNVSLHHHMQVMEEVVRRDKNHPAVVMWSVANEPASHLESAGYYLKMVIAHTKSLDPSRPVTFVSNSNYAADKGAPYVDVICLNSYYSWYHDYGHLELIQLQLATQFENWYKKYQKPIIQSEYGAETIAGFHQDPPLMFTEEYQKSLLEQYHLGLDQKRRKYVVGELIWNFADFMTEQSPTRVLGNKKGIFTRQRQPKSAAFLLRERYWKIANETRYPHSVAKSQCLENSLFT
The experiment can be described thus: β-Glucuronidase Bioassay.

What is called IC50 is the midpoint of a concentration-inhibition curve. Low readings indicate inhibition by little substance, high ones a need for much substance.

Procedure: The total reaction volume was 250 µL. The reaction mixture contained 185 µL of 0.1 M acetate buffer, 5 µL of test compound solution, 10 µL of enzyme solution was incubated at 37 °C for 30 min. […] All assays were run in triplicate.

Molecule `O=C(NNC(=S)Nc1cccc(Br)c1)c1ccc(C(c2c[nH]c3ccccc23)c2c[nH]c3ccccc23)cc1` [N-(3-Bromophenyl)-2-(4-(di(1H-indol-3-yl)methyl)benzoyl)hydrazinecarbothioamide (13)] showed a half-maximal inhibitory concentration (IC50) of 21.4 µM. That is a double-digit micromolar value.
The figure for `Cc1ccc(NC(=S)NNC(=O)c2ccc(C(c3c[nH]c4ccccc34)c3c[nH]c4ccccc34)cc2)cc1` [2-(4-(Di(1H-indol-3-yl)methyl)benzoyl)-N-(p-tolyl)hydrazinecarbothioamide (5)] is 15 µM; for `Cc1cccc(NC(=S)NNC(=O)c2ccc(C(c3c[nH]c4ccccc34)c3c[nH]c4ccccc34)cc2)c1` [2-(4-(Di(1H-indol-3-yl)methyl)benzoyl)-N-(m-tolyl)hydrazinecarbothioamide (11)] it is 14.7 µM; for `O=C(NNC(=S)Nc1ccc(Br)cc1)c1ccc(C(c2c[nH]c3ccccc23)c2c[nH]c3ccccc23)cc1` [N-(4-Bromophenyl)-2-(4-(di(1H-indol-3-yl)methyl)benzoyl)hydrazinecarbothioamide (7)] it is 33.2 µM.
The molecule `COc1ccccc1NC(=S)NNC(=O)c1ccc(C(c2c[nH]c3ccccc23)c2c[nH]c3ccccc23)cc1` [2-(4-(Di(1H-indol-3-yl)methyl)benzoyl)-N-(2-methoxyphenyl)hydrazinecarbothioamide (18)] returned an IC50 of 9.4 µM.
The same measure for `O=C(NNC(=S)Nc1ccc([N+](=O)[O-])cc1)c1ccc(C(c2c[nH]c3ccccc23)c2c[nH]c3ccccc23)cc1` [2-(4-(Di(1H-indol-3-yl)methyl)benzoyl)-N-(4-nitrophenyl)hydrazinecarbothioamide (10)]: 12 µM; for `COc1cccc(NC(=S)NNC(=O)c2ccc(C(c3c[nH]c4ccccc34)c3c[nH]c4ccccc34)cc2)c1` [2-(4-(Di(1H-indol-3-yl)methyl)benzoyl)-N-(3-methoxyphenyl)hydrazinecarbothioamide (15)]: 28.1 µM.
Regarding `COc1ccc(NC(=S)NNC(=O)c2ccc(C(c3c[nH]c4ccccc34)c3c[nH]c4ccccc34)cc2)cc1` [2-(4-(Di(1H-indol-3-yl)methyl)benzoyl)-N-(4-methoxyphenyl)hydrazinecarbothioamide (9)], the half-inhibitory concentration (IC50) was 11.6 µM.

(Values after BindingDB's records for doi:10.1016/j.bioorg.2016.07.008 (Universiti Teknologi Mara, 2016).)
